Measured values from patent publication US8410117B2, “Imidazopyrimidine derivatives” (Hoffmann-La Roche Inc., priority 2010, dated 2013).
pIC50: −log10 of the molar value.

Target: T1, human PDE10A (Homo sapiens, UniProt Q9Y233)
T1 construct: The human PDE10A full length assay; purchased Enzo Life Science, Lausen, Switzerland SE-534
Assay: human PDE10A full length Scintillation Proximity Assay (SPA)
Type: biochemical
Conditions: 50 nM cGMP and 50 nM [3H]-cGMP, 20 minutes at room temperature; read-out: PDE10A inhibition IC50
How it was run: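 Full-length enzyme at 3.75 ng/well in 20 mM HEPES pH 7.5, 10 mM MgCl2, 0.05 mg/ml BSA, with 50 nM cGMP plus 50 nM [3H]-cGMP substrate, 20 min at room temperature. Stopped with YSi-SPA beads in zinc sulphate and counted by scintillation. IC50 from inhibitor concentration series; no-enzyme wells define background.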

T1 sequence (Q9Y233 1-779 isoform Q9Y233-1): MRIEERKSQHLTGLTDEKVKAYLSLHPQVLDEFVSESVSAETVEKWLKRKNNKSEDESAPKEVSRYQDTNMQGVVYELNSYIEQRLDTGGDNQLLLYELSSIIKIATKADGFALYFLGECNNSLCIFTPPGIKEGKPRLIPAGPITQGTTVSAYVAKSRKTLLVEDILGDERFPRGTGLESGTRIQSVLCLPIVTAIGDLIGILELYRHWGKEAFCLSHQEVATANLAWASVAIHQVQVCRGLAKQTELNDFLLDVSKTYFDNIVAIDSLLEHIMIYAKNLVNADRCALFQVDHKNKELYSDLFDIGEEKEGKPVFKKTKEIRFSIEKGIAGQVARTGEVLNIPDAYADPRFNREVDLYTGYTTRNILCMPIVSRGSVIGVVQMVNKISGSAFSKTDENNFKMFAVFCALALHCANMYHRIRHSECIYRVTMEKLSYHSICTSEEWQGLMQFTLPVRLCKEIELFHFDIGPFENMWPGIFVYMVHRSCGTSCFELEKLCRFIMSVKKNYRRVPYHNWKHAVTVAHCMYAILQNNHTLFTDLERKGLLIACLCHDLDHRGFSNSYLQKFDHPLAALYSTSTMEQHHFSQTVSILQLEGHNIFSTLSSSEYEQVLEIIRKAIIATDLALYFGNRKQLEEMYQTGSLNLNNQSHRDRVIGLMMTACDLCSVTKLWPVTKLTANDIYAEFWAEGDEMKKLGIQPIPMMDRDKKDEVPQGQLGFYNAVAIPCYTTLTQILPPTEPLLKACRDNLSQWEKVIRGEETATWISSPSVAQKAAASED

| Structure (SMILES) | pIC50 |
| --- | --- |
| CN(CCOCCF)C(=O)c1cnn(C)c1C(=O)Nc1ccn2cc(-c3ccccc3)nc2n1 [Example 106, 2-Methyl-2H-pyrazole-3,4-dicarboxylic acid 4-{[2-(2-fluoro-ethoxy)-ethyl]-methyl-amide}3-[(2-phenyl-imidazo[1,2-a]pyrimidin-7-yl)-amide]] | 7.36 |
| COCCN(C)C(=O)c1cnn(C)c1C(=O)Nc1ccn2cc(-c3cccc(F)c3)nc2n1 [Example 107, 2-Methyl-2H-pyrazole-3,4-dicarboxylic acid 3-{[2-(3-fluoro-phenyl)-imidazo[1,2-a]pyrimidin-7-yl]-amide}4-[(2-methoxy-ethyl)-methyl-amide]] | 7.28 |
| CN(CCF)C(=O)c1cnn(C)c1C(=O)Nc1ccn2cc(-c3cccc(OCF)c3)nc2n1 [Example 108, 2-Methyl-2H-pyrazole-3,4-dicarboxylic acid 4-[(2-fluoro-ethyl)-methyl-amide]3-{[2-(3-fluoromethoxy-phenyl)-imidazo[1,2-a]pyrimidin-7-yl]-amide}] | 7.09 |
| COc1cccc(-c2cn3ccc(NC(=O)c4c(C(=O)N(C)CCF)cnn4C)nc3n2)c1 [Example 111, 2-Methyl-2H-pyrazole-3,4-dicarboxylic acid 4-[(2-fluoro-ethyl)-methyl-amide]3-{[2-(3-methoxy-phenyl)-imidazo[1,2-a]pyrimidin-7-yl]amide}] | 6.44 |
| Cn1ncc(C(=O)N2CC=CC2)c1C(=O)Nc1ccn2cc(-c3ccccc3)nc2n1 [Example 114, 4-(2,5-dihydro-1H-pyrrole-1-carbonyl)-1-methyl-N-(2-phenylimidazo[1,2-a]pyrimidin-7-yl)-1H-pyrazole-5-carboxamide] | 8.55 |
| Cn1ncc(C(=O)N2CC(F)C2)c1C(=O)Nc1ccn2cc(-c3ccccc3)nc2n1 [Example 115, 4-(3-fluoroazetidine-1-carbonyl)-1-methyl-N-(2-phenylimidazo[1,2-a]pyrimidin-7-yl)-1H-pyrazole-5-carboxamide] | 8.29 |
| CC1CCCN1C(=O)c1cnn(C)c1C(=O)Nc1ccn2cc(-c3ccccc3)nc2n1 (stereo not drawn) [Example 116, 1-methyl-4-(2-methylpyrrolidine-1-carbonyl)-N-(2-phenylimidazo[1,2-a]pyrimidin-7-yl)-1H-pyrazole-5-carboxamide] | 8.29 |
| Cn1ncc(C(=O)NCc2ncco2)c1C(=O)Nc1ccn2cc(-c3ccccc3)nc2n1 [Example 122, 1-methyl-N4-(oxazol-2-ylmethyl)-N5-(2-phenylimidazo[1,2-a]pyrimidin-7-yl)-1H-pyrazole-4,5-dicarboxamide] | 7.77 |
| Cn1ncc(C(=O)NCCF)c1C(=O)Nc1ccn2cc(-c3ccccc3)nc2n1 [Example 123, N4-(2-fluoroethyl)-1-methyl-N5-(2-phenylimidazo[1,2-a]pyrimidin-7-yl)-1H-pyrazole-4,5-dicarboxamide] | 7.76 |
| Cn1ncc(C(=O)NCCC(F)(F)F)c1C(=O)Nc1ccn2cc(-c3ccccc3)nc2n1 [Example 126, 1-methyl-N5-(2-phenylimidazo[1,2-a]pyrimidin-7-yl)-N4-(3,3,3-trifluoropropyl)-1H-pyrazole-4,5-dicarboxamide] | 7.61 |
| Cn1ncc(C(=O)NCC(F)F)c1C(=O)Nc1ccn2cc(-c3ccccc3)nc2n1 [Example 129, N4-(2,2-difluoroethyl)-1-methyl-N5-(2-phenylimidazo[1,2-a]pyrimidin-7-yl)-1H-pyrazole-4,5-dicarboxamide] | 7.48 |
| Cn1ncc(C(=O)NCC(F)(F)F)c1C(=O)Nc1ccn2cc(-c3ccccc3)nc2n1 [Example 130, 1-methyl-N5-(2-phenylimidazo[1,2-a]pyrimidin-7-yl)-N4-(2,2,2-trifluoroethyl)-1H-pyrazole-4,5-dicarboxamide] | 7.46 |
| Cn1ncc(C(=O)Nc2ccccc2)c1C(=O)Nc1ccn2cc(-c3ccccc3)nc2n1 [Example 133, 1-methyl-N4-phenyl-N5-(2-phenylimidazo[1,2-a]pyrimidin-7-yl)-1H-pyrazole-4,5-dicarboxamide] | 7.28 |
| Cn1ncc(C(=O)NC2(C)COC2)c1C(=O)Nc1ccn2cc(-c3ccccc3)nc2n1 [Example 134, 1-methyl-N4-(3-methyloxetan-3-yl)-N5-(2-phenylimidazo[1,2-a]pyrimidin-7-yl)-1H-pyrazole-4,5-dicarboxamide] | 7.24 |
| CN(Cc1ccc(Br)cn1)C(=O)c1cnn(C)c1C(=O)Nc1ccn2cc(-c3ccccc3)nc2n1 [Example 136, N4-((5-bromopyridin-2-yl)methyl)-N4,1-dimethyl-N5-(2-phenylimidazo[1,2-a]pyrimidin-7-yl)-1H-pyrazole-4,5-dicarboxamide] | 7.00 |
| Cn1ncc(C(=O)N2CCOCC2c2cccnc2)c1C(=O)Nc1ccn2cc(-c3ccccc3)nc2n1 (stereo not drawn) [Example 137, 1-methyl-N-(2-phenylimidazo[1,2-a]pyrimidin-7-yl)-4-(3-(pyridin-3-yl)morpholine-4-carbonyl)-1H-pyrazole-5-carboxamide] | 6.93 |
| Cn1ncc(C(=O)NC(C)(C)C)c1C(=O)Nc1ccn2cc(-c3ccccc3)nc2n1 [Example 138, N4-tert-butyl-1-methyl-N5-(2-phenylimidazo[1,2-a]pyrimidin-7-yl)-1H-pyrazole-4,5-dicarboxamide] | 6.88 |

Continued by rising pIC50, values first:

| pIC50 | Structure (SMILES) |
| --- | --- |
| 6.65 | COc1cccc(-c2cn3ccc(NC(=O)c4c(C(=O)N(C)CCOCCF)cnn4C)nc3n2)c1 [Example 110] |
| 7.05 | CN(CCOCCF)C(=O)c1cnn(C)c1C(=O)Nc1ccn2cc(-c3cccc(OCCF)c3)nc2n1 [Example 109, 2-Methyl-2H-pyrazole-3,4-dicarboxylic acid 4-{[2-(2-fluoro-ethoxy)-ethyl]-methyl-amide}3-({2-[3-(2-fluoro-ethoxy)-phenyl]-imidazo[1,2-a]pyrimidin-7-yl}-amide)] |
| 7.19 | CN(Cc1ccccn1)C(=O)c1cnn(C)c1C(=O)Nc1ccn2cc(-c3ccccc3)nc2n1 [Example 135, N4,1-dimethyl-N5-(2-phenylimidazo[1,2-a]pyrimidin-7-yl)-N4-(pyridin-2-ylmethyl)-1H-pyrazole-4,5-dicarboxamide] |
| 7.31 | Cn1ncc(C(=O)N2CC3(COC3)C2)c1C(=O)Nc1ccn2cc(-c3ccccc3)nc2n1 [Example 132, 1-methyl-N-(2-phenylimidazo[1,2-a]pyrimidin-7-yl)-4-(2-oxa-6-azaspiro[3.3]heptane-6-carbonyl)-1H-pyrazole-5-carboxamide] |
| 7.45 | Cn1ncc(C(=O)NCc2ccno2)c1C(=O)Nc1ccn2cc(-c3ccccc3)nc2n1 [Example 131, N4-(isoxazol-5-ylmethyl)-1-methyl-N5-(2-phenylimidazo[1,2-a]pyrimidin-7-yl)-1H-pyrazole-4,5-dicarboxamide] |
| 7.59 | Cn1ncc(C(=O)N2CCC2)c1C(=O)Nc1ccn2cc(-c3cccc(-c4ccccc4)c3)nc2n1 [Example 128, 4-(azetidine-1-carbonyl)-N-(2-(biphenyl-3-yl)imidazo[1,2-a]pyrimidin-7-yl)-1-methyl-1H-pyrazole-5-carboxamide] |
| 7.59 | Cc1cc(CNC(=O)c2cnn(C)c2C(=O)Nc2ccn3cc(-c4ccccc4)nc3n2)on1 [Example 127, 1-methyl-N4-((3-methylisoxazol-5-yl)methyl)-N5-(2-phenylimidazo[1,2-a]pyrimidin-7-yl)-1H-pyrazole-4,5-dicarboxamide] |
| 7.73 | Cn1ncc(C(=O)NCC#N)c1C(=O)Nc1ccn2cc(-c3ccccc3)nc2n1 [Example 125, N4-(cyanomethyl)-1-methyl-N5-(2-phenylimidazo[1,2-a]pyrimidin-7-yl)-1H-pyrazole-4,5-dicarboxamide] |
| 7.75 | Cc1cnc(CNC(=O)c2cnn(C)c2C(=O)Nc2ccn3cc(-c4ccccc4)nc3n2)s1 [Example 124, 1-methyl-N4-((5-methylthiazol-2-yl)methyl)-N5-(2-phenylimidazo[1,2-a]pyrimidin-7-yl)-1H-pyrazole-4,5-dicarboxamide] |
| 7.78 | Cc1cc(CNC(=O)c2cnn(C)c2C(=O)Nc2ccn3cc(-c4ccccc4)nc3n2)n[nH]1 [Example 121, 1-methyl-N-4-((5-methyl-1H-pyrazol-3-yl)methyl)-N5-(2-phenylimidazo[1,2-a]pyrimidin-7-yl)-1H-pyrazole-4,5-dicarboxamide] |
| 7.86 | C=CCn1ncc(C(=O)N2CCC2)c1C(=O)Nc1ccn2cc(-c3ccccc3)nc2n1 [Example 120, 1-allyl-4-(azetidine-1-carbonyl)-N-(2-phenylimidazo[1,2-a]pyrimidin-7-yl)-1H-pyrazole-5-carboxamide] |
| 7.88 | CN(CC#N)C(=O)c1cnn(C)c1C(=O)Nc1ccn2cc(-c3ccccc3)nc2n1 [Example 119, N4-(cyanomethyl)-N4,1-dimethyl-N5-(2-phenylimidazo[1,2-a]pyrimidin-7-yl)-1H-pyrazole-4,5-dicarboxamide] |
| 7.92 | Cn1ncc(C(=O)NCc2ccccn2)c1C(=O)Nc1ccn2cc(-c3ccccc3)nc2n1 [Example 118, 1-methyl-N5-(2-phenylimidazo[1,2-a]pyrimidin-7-yl)-N4-(pyridin-2-ylmethyl)-1H-pyrazole-4,5-dicarboxamide] |
| 8.21 | Cn1ncc(C(=O)N2CCC2)c1C(=O)Nc1ccn2cc(-c3cccc(Br)c3)nc2n1 [Example 117, 4-(azetidine-1-carbonyl)-N-(2-(3-bromophenyl)imidazo[1,2-a]pyrimidin-7-yl)-1-methyl-1H-pyrazole-5-carboxamide] |
| 8.59 | Cn1ncc(C(=O)NCc2ccn[nH]2)c1C(=O)Nc1ccn2cc(-c3ccccc3)nc2n1 [Example 113, N4-((1H-pyrazol-5-yl)methyl)-1-methyl-N5-(2-phenylimidazo[1,2-a]pyrimidin-7-yl)-1H-pyrazole-4,5-dicarboxamide] |
| 8.89 | Cn1ncc(C(=O)NCc2cocn2)c1C(=O)Nc1ccn2cc(-c3ccccc3)nc2n1 [Example 112, 1-methyl-N4-(oxazol-4-ylmethyl)-N5-(2-phenylimidazo[1,2-a]pyrimidin-7-yl)-1H-pyrazole-4,5-dicarboxamide] |
